Assay [1] has as its system genotype 4a (ED43) stable HCV replicon in Huh-7-derived cells. Put plainly: Stable subgenomic HCV replicon EC50, genotype 4a (Renilla luciferase). It is filed as cell-based, hepatitis C virus. The settings on record: 72 h, read-out: EC50 4A RLUC. A digest of the protocol: (§1)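 Compounds, three-fold diluted, were applied to Huh-7-derived cells harbouring luciferase replicons (genotype 1a H77, 1b Con1, 2a JFH-1, 4a ED43, with strain-specific adaptive mutations). Seventy-two hours later, intracellular replication was gauged by Renilla luciferase activity and EC50 derived by regression.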

The test system of assay [2] is genotype 1b (Con1) stable HCV replicon in Huh-7-derived cells. Put plainly: Stable subgenomic HCV replicon EC50, genotype 1b (Renilla luciferase). The format is cell-based, hepatitis C virus. Particulars: stable replicon genotype 1b, 72 h, read-out: EC50 1B RLUC. A digest of the protocol: as §1
In assay [3] the test system is genotype 3a (S52) stable HCV replicon in Huh-7-derived cells. Put plainly: Stable subgenomic HCV replicon EC50, genotype 3a (Renilla luciferase). The format is cell-based, hepatitis C virus. The settings on record: 72 h, read-out: EC50 3A RLUC.
In assay [4] the test system is genotype 1b (Con1) wild type transient HCV replicon in Huh-7-derived cells. Put plainly: Transient-transfected HCV replicon EC50, genotype 1b wild type. The format is cell-based, hepatitis C virus. The settings on record: 72 h, transient-transfected replicon genotype 1b wild type, read-out: EC50 1B WT.
The test system of assay [5] is genotype 1a NS3/4a protease inhibitor resistant variant R155K transient HCV replicon in Huh-7-derived cells. Put plainly: Transient-transfected HCV replicon EC50, genotype 1a R155K. The format is cell-based, hepatitis C virus. The settings on record: 72 h.
In assay [6] the test system is genotype 2a (JFH-1) stable HCV replicon in Huh-7-derived cells. Put plainly: Stable subgenomic HCV replicon EC50, genotype 2a (Renilla luciferase). The format is cell-based, hepatitis C virus. The settings on record: stable replicon genotype 2a, 72 h, read-out: EC50 2A RLUC. In a few lines: as §1
The test system of assay [7] is genotype 1a (H77) wild type transient HCV replicon in Huh-7-derived cells. Put plainly: Transient-transfected HCV replicon EC50, genotype 1a wild type. It is filed as cell-based, hepatitis C virus. Particulars: 72 h, transient-transfected replicon genotype 1a wild type, read-out: EC50 1A WT.
The test system of assay [8] is genotype 1a (H77) stable HCV replicon in Huh-7-derived cells. Put plainly: Stable subgenomic HCV replicon EC50, genotype 1a (Renilla luciferase). It is filed as cell-based, hepatitis C virus. The settings on record: stable replicon genotype 1a, 72 h, read-out: EC50 1A RLUC. In a few lines:
as §1

Assay [9] deals with genotype 1b NS3/4a protease inhibitor resistant variant D168A transient HCV replicon in Huh-7-derived cells. Put plainly: Transient-transfected HCV replicon EC50, genotype 1b D168A. The format is cell-based, hepatitis C virus. Particulars: 72 h.
The target of assay [10] is HCV NS3 protease domain genotype 3a (Hepatitis C virus genotype 3a, UniProt Q81258). Put plainly: Ki determination, NS3 protease genotype 3a (fluorogenic depsipeptide substrate). The format is biochemical. The settings on record: 200 pM enzyme, NS4A peptide. The text has this:
Purified NS3 protease domain (amino acids 1-181) of the genotype 1b and 3a virus were generated as above. The internally quenched fluorogenic depsipeptide substrate Ac-DED(Edans)-EEAbuΨ[COO]ASK(Dabcyl)-NH2 and a synthetic peptide containing the hydrophobic core residues of the NS4A protein cofactor ([…]; NS4A peptide) were obtained from Anaspec, Inc. (San Jose, Calif.). Other chemicals and biochemicals were of reagent grade or better and were purchased from standard suppliers.
Reactions were run at room temperature in buffer consisting of 50 mM HEPES, 40% glycerol, 0.05% Triton X-100, 10 mM DTT, and 10% DMSO. The final assay solutions contained 50 pM NS3 genotype 1 b protease or 200 pM genotype 3a protease, 20 μM NS4A peptide, and 4 μM substrate (genotype 1b) or 2 μM substrate (genotype 3a). Inhibitor concentrations varied from 100 nM to 5 pM in 3-fold dilutions, and no-inhibitor controls were included.
Compound dilutions were made in DMSO at 20× final concentration. Reaction mixtures were prepared in 96-well assay plates. A solution of enzyme and NS4A peptide in assay buffer (25 μL volume with both reagents at 4× final concentration) was mixed with 45 μL assay buffer and 5 μL of either inhibitor or DMSO, and pre-incubated at room temperature for 1 hour. The reaction was started by addition of 25 μL substrate solution at 4× final concentration. Plates were mixed vigorously for 5-10 seconds and reactions were allowed to proceed for 90 minutes, fluorescence was measured every 30 s between 90 and 120 minutes reaction time using a Tecan InfiniTe M1000 or PerkinElmer Envision multimode plate reader with an excitation wavelength of 340 nm and an emission wavelength of 490 nm.
Rates were calculated from the progress curves at steady state, in the time frame of 90-120 minutes after addition of substrate. To determine the Ki, rates were plotted as a function of inhibitor concentration, and the data were fit with equation 1 (Morrison, J. F., Biochimica et Biophysica Acta 1969, 185, 269-286) to calculate Ki^app using GraphPad Prism 5. Active fraction of enzyme was determined by active site titration with known potent inhibitors. Ki was calculated from Ki^app/(1+[[S]/Km]).

The mark [11] stands for this setting: Hepatitis C virus, read-out: EC50 1A R155K, transient-transfected replicon genotype 1a R155K resistant variant, 72 h.
Setting [12] is: Hepatitis C virus, read-out: EC50 1B D168A, transient-transfected replicon genotype 1b D168A resistant variant, 72 h.
[13] abbreviates: stable replicon genotype 4a, Renilla luciferase.
Setting [14] is: stable replicon genotype 3a, Renilla luciferase.
The mark [15] stands for this setting: transient-transfected replicon genotype 1a R155K resistant variant, read-out: EC50 1A R155K.
Setting [16] is: transient-transfected replicon genotype 1b D168A resistant variant, read-out: EC50 1B D168A.

Molecules are shown by their SMILES. Read-outs that look alike come from different tables or passages of the source.

Sequence of HCV NS3 protease domain genotype 3a (Q81258 whole entry, looked up, the tested form may be a part): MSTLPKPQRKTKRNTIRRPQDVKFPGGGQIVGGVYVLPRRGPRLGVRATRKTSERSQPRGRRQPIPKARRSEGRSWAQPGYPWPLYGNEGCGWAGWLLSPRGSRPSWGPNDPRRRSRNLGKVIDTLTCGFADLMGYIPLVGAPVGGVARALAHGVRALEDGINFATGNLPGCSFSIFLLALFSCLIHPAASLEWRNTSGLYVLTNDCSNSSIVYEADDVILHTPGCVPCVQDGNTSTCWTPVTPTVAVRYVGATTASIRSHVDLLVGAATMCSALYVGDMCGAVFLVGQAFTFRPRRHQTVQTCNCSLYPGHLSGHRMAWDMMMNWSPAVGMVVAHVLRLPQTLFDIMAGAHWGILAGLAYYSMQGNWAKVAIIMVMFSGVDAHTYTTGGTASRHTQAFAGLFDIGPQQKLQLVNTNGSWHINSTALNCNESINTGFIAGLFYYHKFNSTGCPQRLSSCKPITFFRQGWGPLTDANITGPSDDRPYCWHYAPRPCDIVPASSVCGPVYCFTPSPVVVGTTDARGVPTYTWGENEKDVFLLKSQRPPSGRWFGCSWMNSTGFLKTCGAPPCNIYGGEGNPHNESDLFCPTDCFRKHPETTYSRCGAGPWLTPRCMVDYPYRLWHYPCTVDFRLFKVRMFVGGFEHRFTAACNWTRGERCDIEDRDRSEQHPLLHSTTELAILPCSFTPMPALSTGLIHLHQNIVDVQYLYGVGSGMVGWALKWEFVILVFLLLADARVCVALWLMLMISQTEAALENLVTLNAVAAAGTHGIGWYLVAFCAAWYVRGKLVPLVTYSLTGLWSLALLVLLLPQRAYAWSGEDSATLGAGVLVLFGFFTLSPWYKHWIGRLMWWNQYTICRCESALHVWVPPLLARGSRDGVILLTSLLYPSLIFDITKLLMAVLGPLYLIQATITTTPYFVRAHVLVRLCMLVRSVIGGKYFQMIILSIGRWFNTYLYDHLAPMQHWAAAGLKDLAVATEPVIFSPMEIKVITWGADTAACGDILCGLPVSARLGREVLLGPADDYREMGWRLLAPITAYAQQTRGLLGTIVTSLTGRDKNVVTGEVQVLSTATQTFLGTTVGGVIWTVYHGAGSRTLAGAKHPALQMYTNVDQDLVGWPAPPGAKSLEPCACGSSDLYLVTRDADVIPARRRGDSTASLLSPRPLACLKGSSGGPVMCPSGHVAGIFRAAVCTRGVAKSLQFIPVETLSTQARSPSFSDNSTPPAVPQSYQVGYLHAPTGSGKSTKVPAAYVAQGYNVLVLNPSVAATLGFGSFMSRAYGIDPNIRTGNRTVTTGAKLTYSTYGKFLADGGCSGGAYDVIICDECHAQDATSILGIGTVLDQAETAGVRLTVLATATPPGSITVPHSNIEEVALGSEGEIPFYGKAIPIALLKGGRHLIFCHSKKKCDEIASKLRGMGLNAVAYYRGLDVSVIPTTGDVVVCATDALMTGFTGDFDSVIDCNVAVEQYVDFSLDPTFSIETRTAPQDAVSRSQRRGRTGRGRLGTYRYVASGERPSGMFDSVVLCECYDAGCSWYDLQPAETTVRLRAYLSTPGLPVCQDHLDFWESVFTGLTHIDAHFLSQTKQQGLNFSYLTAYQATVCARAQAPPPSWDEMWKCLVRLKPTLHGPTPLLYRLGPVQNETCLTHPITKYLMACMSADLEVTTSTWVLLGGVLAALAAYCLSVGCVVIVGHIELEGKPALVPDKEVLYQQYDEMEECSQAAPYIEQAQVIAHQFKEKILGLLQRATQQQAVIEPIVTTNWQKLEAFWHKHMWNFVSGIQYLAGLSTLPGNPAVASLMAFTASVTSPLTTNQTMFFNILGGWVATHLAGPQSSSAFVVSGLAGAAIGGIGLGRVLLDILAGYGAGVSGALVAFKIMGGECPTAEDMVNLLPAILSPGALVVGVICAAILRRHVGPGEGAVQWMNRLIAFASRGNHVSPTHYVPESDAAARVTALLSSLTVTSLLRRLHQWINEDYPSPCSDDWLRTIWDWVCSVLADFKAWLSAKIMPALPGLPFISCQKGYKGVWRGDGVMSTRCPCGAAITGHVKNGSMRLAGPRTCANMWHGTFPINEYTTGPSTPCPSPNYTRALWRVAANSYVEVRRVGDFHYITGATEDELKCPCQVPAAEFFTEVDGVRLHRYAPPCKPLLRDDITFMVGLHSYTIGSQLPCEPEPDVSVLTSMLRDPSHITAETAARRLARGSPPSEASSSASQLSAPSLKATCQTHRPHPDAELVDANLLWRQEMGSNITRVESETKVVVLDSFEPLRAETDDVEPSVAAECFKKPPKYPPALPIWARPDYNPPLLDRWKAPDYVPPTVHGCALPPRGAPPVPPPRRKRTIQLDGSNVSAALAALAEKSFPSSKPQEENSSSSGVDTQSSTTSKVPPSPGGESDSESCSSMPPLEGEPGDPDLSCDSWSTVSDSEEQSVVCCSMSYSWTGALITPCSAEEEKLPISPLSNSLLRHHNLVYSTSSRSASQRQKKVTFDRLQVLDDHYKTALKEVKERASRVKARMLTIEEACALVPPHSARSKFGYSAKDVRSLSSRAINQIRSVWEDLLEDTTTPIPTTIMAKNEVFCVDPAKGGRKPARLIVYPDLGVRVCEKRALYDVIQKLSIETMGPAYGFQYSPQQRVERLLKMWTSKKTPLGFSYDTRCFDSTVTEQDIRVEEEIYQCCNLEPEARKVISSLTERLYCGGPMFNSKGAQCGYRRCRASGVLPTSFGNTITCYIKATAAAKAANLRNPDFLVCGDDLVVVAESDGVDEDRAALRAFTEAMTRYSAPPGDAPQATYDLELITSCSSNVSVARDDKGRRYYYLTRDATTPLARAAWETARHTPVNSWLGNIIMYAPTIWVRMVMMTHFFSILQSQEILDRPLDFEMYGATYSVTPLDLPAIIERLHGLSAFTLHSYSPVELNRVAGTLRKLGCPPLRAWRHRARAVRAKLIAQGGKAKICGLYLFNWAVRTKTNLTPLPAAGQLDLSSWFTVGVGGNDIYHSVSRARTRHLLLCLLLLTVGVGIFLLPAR

Regarding `CC[C@]12C[C@@H]1CCCCCc1nc3ccc(OC)cc3nc1O[C@H]1CN(C(=O)[C@H](C(C)(C)C)NC(=O)O2)[C@H](C(=O)N[C@]2(C(=O)NS(=O)(=O)C3(C)CC3)C[C@H]2C(F)F)[C@@H]1C` [Example 42, (1aS,5S,8S,9S,10R,22aS)-5-tert-butyl-N-[(1R,2R)-2-(difluoromethyl)-1-{[(1-methylcyclopropyl)sulfonyl]carbamoyl}cyclopropyl]-1a-ethyl-14-methoxy-9-methyl-3,6-dioxo-1,1a,3,4,5,6,9,10,18,19,20,21,22,22a-tetradecahydro-8H-7,10-methanocyclopropa[18,19][1,10,3,6]dioxadiazacyclononadecino[11,12-b]quinoxaline-8-carboxamide], the EC50 in assay [1] (Hepatitis C virus) was determined as 14 nM; in assay [2] (Hepatitis C virus), 16 nM; in assay [3] (Hepatitis C virus), 343 nM; in [4] (Hepatitis C virus) it was 10 nM; in assay [5] (setting [11]), 35 nM; in assay [6] (Hepatitis C virus), 17 nM. Besides, the EC50 in assay [7] (Hepatitis C virus) was determined as 17 nM; in [8] (Hepatitis C virus) it was 20 nM; in assay [9] (setting [12]), 109 nM. For the same compound, in assay [10], the Ki was determined as 0.75 nM.
As for `CC[C@@]12C[C@H]1CCCCCc1nc3ccc(OC)cc3nc1O[C@H]1CN(C(=O)[C@H](C(C)(C)C)NC(=O)O2)[C@H](C(=O)N[C@]2(C(=O)NS(=O)(=O)C3(C)CC3)C[C@H]2C(F)F)[C@@H]1C` [Example 43, (1aR,5S,8S,9S,10R,22aR)-5-tert-butyl-N-[(1R,2R)-2-(difluoromethyl)-1-{[(1-methylcyclopropyl)sulfonyl]carbamoyl}cyclopropyl]-1a-ethyl-14-methoxy-9-methyl-3,6-dioxo-1,1a,3,4,5,6,9,10,18,19,20,21,22,22a-tetradecahydro-8H-7,10-methanocyclopropa[18,19][1,10,3,6]dioxadiazacyclononadecino[11,12-b]quinoxaline-8-carboxamide], the concentration giving a half-maximal response (EC50) in assay [1] (Hepatitis C virus) came out at 3.6 nM; in assay [2] (Hepatitis C virus), 3.8 nM; in [3] (Hepatitis C virus), 92 nM; in [4] (Hepatitis C virus), 2.4 nM; in assay [5] (setting [11]), 8.7 nM; in assay [6] (Hepatitis C virus) it was 5.2 nM. In addition, the EC50 came to 3.8 nM in [7] (Hepatitis C virus), 4.9 nM in assay [8] (Hepatitis C virus) and 41 nM in assay [9] (setting [12]). Besides, the affinity in [10], expressed as Ki, was 0.16 nM.
Turning to `CC[C@@H]1[C@@H]2CN(C(=O)[C@H](C(C)(C)C)NC(=O)O[C@@]3(C(F)(F)F)CCCC3CCCCCc3nc4ccc(OC)cc4nc3O2)[C@@H]1C(=O)N[C@]1(C(=O)NS(=O)(=O)C2(C)CC2)C[C@H]1C(F)F` (stereo partly drawn) [Example 10, (7S,10S,11S,12R)-7-tert-butyl-N-[(1R,2R)-2-(difluoromethyl)-1-{[(1-methylcyclopropyl)sulfonyl]carbamoyl}cyclopropyl]-11-ethyl-16-methoxy-5,8-dioxo-3aS-(trifluoromethyl)-1,2,3,3a,5,6,7,8,11,12,20,21,22,23,24,24a-hexadecahydro-10H-9,12-methanocyclopenta[18,19][1,10,3,6]dioxadiazacyclononadecino[11,12-b]quinoxaline-10-carboxamide], the concentration for a half-maximal effect (EC50) in assay [1] (setting [13]) was 26 nM; in [2] it was 22 nM; in assay [3] (setting [14]), 978 nM; in assay [4], 10 nM; in [5] (setting [15]), 131 nM; in assay [6], 49 nM. For the same compound, the EC50 in assay [7] stood at 37 nM; in assay [8], 30 nM; in assay [9] (setting [16]), 493 nM. The compound further gave an inhibitory constant (Ki) in assay [10] of 0.52 nM.
In the case of `CC[C@@H]1[C@@H]2CN(C(=O)[C@H](C(C)(C)C)NC(=O)O[C@]3(C(F)(F)F)CCC[C@H]3CCCCCc3nc4ccc(OC)cc4nc3O2)[C@@H]1C(=O)N[C@]1(C(=O)NS(=O)(=O)C2CC2)C[C@H]1C(F)F` [Example 11, (7S,10S,11 S,12R)-7-tert-butyl-N-[(1R,2R)-1-[(cyclopropylsulfonyl)carbamoyl]-2-(difluoromethyl)cyclopropyl]-1-ethyl-16-methoxy-5,8-dioxo-3aR-(trifluoromethyl)-1,2,3,3a,5,6,7,8,11,12,20,21,22,23,24,24a-hexadecahydro-1 OH-9,12-methanocyclopenta[18,19][1,10,3,6]dioxadiazacyclononadecino[11,12-b]quinoxaline-10-carboxamide], the EC50 in assay [1] (setting [13]) came to 19 nM; in assay [2] it was 17 nM; in [3] (setting [14]), 1160 nM; in assay [4], 9.4 nM; in [5] (setting [15]), 159 nM; in assay [6] it was 34 nM. Moreover, the concentration giving a half-maximal response (EC50) in assay [7] was 20 nM; in assay [8], 28 nM; in assay [9] (setting [16]), 605 nM. In [10], this compound registered an inhibition constant (Ki) of 0.88 nM.
As for `COc1ccc2nc3c(nc2c1)O[C@H]1CN(C(=O)[C@H](C(C)(C)C)NC(=O)O[C@@H]2C[C@H]2CCCCC3)[C@H](C(=O)N[C@]2(C(=O)NS(=O)(=O)C3(C)CC3)C[C@H]2C(F)F)[C@@H]1Cc1ccccc1` [Example 32], the EC50 in assay [1] (Hepatitis C virus) was determined as 30 nM; in assay [2] (Hepatitis C virus), 30 nM; in [3] (Hepatitis C virus), 2310 nM; in [4] (Hepatitis C virus, GETYPE1B), 14 nM; in assay [5] (Hepatitis C virus, GETYPE1A, read-out: EC50 1A R155K, transient-transfected replicon genotype 1a R155K resistant variant, 72 h) it was 547 nM; in [6] (Hepatitis C virus) it was 35 nM. Moreover, the concentration for a half-maximal effect (EC50) amounted to 44 nM in assay [7] (Hepatitis C virus, GETYPE1A); 59 nM in [8] (Hepatitis C virus); 653 nM in assay [9] (Hepatitis C virus, GETYPE1B, read-out: EC50 1B D168A, transient-transfected replicon genotype 1b D168A resistant variant, 72 h). This compound also displayed an inhibition constant Ki in assay [10] of 0.87 nM.

For the origin of these results see patent publication US10335409B2 (priority 2012, dated 2019).
